Results as given in PubChem BioAssay (NCI).
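A five-concentration, 48-hour dose response in 96-well plates underlies each endpoint, interpolated linearly between surrounding concentrations. TGI: concentration producing complete growth inhibition.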

What was measured:
Experiment in all cases: NCI anticancer screen, dose series, 48 h
[1] = test system: 786-0 renal
[2] = test system: A498 renal
[3] = test system: A549 NSCLC
[4] = test system: ACHN renal
[5] = test system: CCRF-CEM leukemia
[6] = test system: COLO 205 colon
[7] = test system: DLD-1 colon
[8] = test system: DMS 114 small cell lung
[9] = test system: DMS 273 small cell lung
[10] = test system: EKVX NSCLC
[11] = test system: HCC-2998 colon
[12] = test system: HCT-116 colon
[13] = test system: HCT-15 colon
[14] = test system: HL-60(TB) leukemia
[15] = test system: HOP-18 NSCLC
[16] = test system: HOP-62 NSCLC
[17] = test system: HOP-92 NSCLC
[18] = test system: HT29 colon
[19] = test system: IGROV1 ovarian
[20] = test system: K-562 leukemia
[21] = test system: KM20L2 colon
[22] = test system: LXFL 529 NSCLC
[23] = test system: M14 melanoma
[24] = test system: M19-MEL melanoma
[25] = test system: MALME-3M melanoma
[26] = test system: MOLT-4 leukemia
[27] = test system: NCI-H226 lung
[28] = test system: NCI-H23 lung
[29] = test system: NCI-H522 lung
[30] = test system: OVCAR-4 ovarian
[31] = test system: OVCAR-8 ovarian
[32] = test system: RPMI-8226 leukemia
[33] = test system: RXF 393 renal
[34] = test system: SF-268 CNS
[35] = test system: SF-295 CNS
[36] = test system: SF-539 CNS
[37] = test system: SK-MEL-28 melanoma
[38] = test system: SK-MEL-5 melanoma
[39] = test system: SK-OV-3 ovarian
[40] = test system: SN12C renal
[41] = test system: SNB-19 CNS
[42] = test system: SNB-75 CNS
[43] = test system: SNB-78 CNS
[44] = test system: SR leukemia
[45] = test system: SW-620 colon
[46] = test system: U251 CNS
[47] = test system: UACC-257 melanoma
[48] = test system: UACC-62 melanoma
[49] = test system: UO-31 renal
[50] = test system: XF 498 CNS

## COc1ccc(-c2cc(=O)c3c(O)c(OC)c(O)c(OC)c3o2)cc1OC
[1]
  TGI: > 100 µM
[2]
  TGI: > 100 µM
[3]
  TGI: > 100 µM
[4]
  TGI: > 100 µM
[5]
  TGI: > 100 µM
[6]
  TGI: > 100 µM
[7]
  TGI: > 100 µM
[8]
  TGI: > 100 µM
[9]
  TGI: > 100 µM
[10]
  TGI: > 100 µM
[11]
  TGI: > 100 µM
[12]
  TGI: > 100 µM
[13]
  TGI: > 100 µM
[14]
  TGI: > 100 µM
[15]
  TGI: > 100 µM
[16]
  TGI: > 100 µM
[17]
  TGI: > 100 µM
[18]
  TGI: > 100 µM
[19]
  TGI: > 100 µM
[20]
  TGI: > 100 µM
[21]
  TGI: > 100 µM
[22]
  TGI: > 100 µM
[23]
  TGI: > 100 µM
[24]
  TGI: > 100 µM
[25]
  TGI: > 100 µM
[26]
  TGI: > 100 µM
[27]
  TGI: > 100 µM
[28]
  TGI: > 100 µM
[29]
  TGI: 42.8 µM
[30]
  TGI: > 100 µM
[31]
  TGI: > 100 µM
[32]
  TGI: > 100 µM
[33]
  TGI: 55.6 µM
[34]
  TGI: > 100 µM
[35]
  TGI: > 100 µM
[36]
  TGI: > 100 µM
[37]
  TGI: > 100 µM
[38]
  TGI: > 100 µM
[39]
  TGI: > 100 µM
[40]
  TGI: > 100 µM
[41]
  TGI: > 100 µM
[42]
  TGI: > 100 µM
[43]
  TGI: > 100 µM
[44]
  TGI: > 100 µM
[45]
  TGI: > 100 µM
[46]
  TGI: > 100 µM
[47]
  TGI: > 100 µM
[48]
  TGI: > 100 µM
[49]
  TGI: > 100 µM
[50]
  TGI: > 100 µM
